Measurements: US9902681B2, “N-3 immunoresolvents: structures and actions” (THE BRIGHAM AND WOMEN'S HOSPITAL, INC., priority 2013, dated 2018)

Legend:
neutrophil recruitment = assay: Zymosan peritonitis, neutrophil recruitment into the peritoneum; parameters: species or system mouse; conditions: administered in vivo (as mixtures, FIG. 5); result in words
Procedure: FIG. 5. n-3 DPA immunoresolvents display potent anti-inflammatory actions in vivo. The indicated n-3 DPA-derived product mixtures were administered by intravenous injection 10 min prior to the intraperitoneal administration of zymosan (0.1 mg, 500 μl PBS) to 6-8-week-old male FvB mice. At 4 h, peritoneal exudates were collected and the (a) number of infiltrated neutrophils was assessed by light microscopy and flow cytometry. Exudate levels for the pro-inflammatory mediators (b) IL6 and (c) MCP-1 were determined by cytokine array. The ratio of RvD1n-3 DPA to RvD2n-3 DPA was ˜3:1 (A), the ratio of MaR1n-3 DPA to MaR2n-3 DPA was ˜4:1 (B); the ratio of RvD5n-3 DPA to PD1n-3 DPA was ˜9:1 (C). Results are mean±SEM. n=4 mice per group (*P<0.05; vs. vehicle group). Results are mean±SEM. n=4. *P<0.05, **P<0.01 vs. zymosan mice.
It was then determined whether these novel structures carried bioactivity.
Zymosan (0.1 mg) was injected intraperitoneally (i.p.) in 1 ml of sterile saline. Exudates were collected at 0, 4, 12 and 24 h post zymosan. Leukocyte numbers and differential counts in the peritoneal exudates were determined as in^16. In designated experiments, mice were administered intravenously (i.v): Vehicle (saline containing 0.1% EtOH), or the indicated mixture of n-3 DPA-derived products at 100 ng/mouse 5 min prior to i.p. zymosan administration (0.1 mg). After 4 h the exudates were collected and the number of extravasated neutrophils determined using Turks solution and flow cytometry as above.

[1] = tested on: human neutrophils adhering to TNF-α activated endothelial cells (HUVEC); assay: Human neutrophil-endothelial cell adhesion; type: cell-based; conditions: 1 nM, 15 min, 37° C.; HUVEC stimulated with TNF-α 10 ng/ml, 4 h; vs vehicle
Procedure: (§1) FIG. 7. Reduction in human neutrophil chemotaxis, neutrophil-endothelia cell adhesion and stimulation of macrophage phagocytosis by n-3 DPA-derived immunoresolvents. (a) Left panel: micrographs depict PKH26-labeled neutrophils adherent to WGA-Alexafluor® 488-labeled HUVEC stimulated with TNF-α (10 ng/ml, 4 h, 37° C., 0.1% FCS) with or without n-3 DPA resolvins (1 nM, 15 min, 37° C., pH7.45; ×40 magnification). Right panel: Fluorescently labeled human neutrophils were incubated with vehicle (0.1% EtOH in PBS) or n-3 DPA products. These were then added to TNF-α-stimulated HUVEC and incubated for 30 min (37° C.), non-adherent cells were washed and extent of neutrophil adhesion assessed using a SpectraMax M3 Plate reader. (b) Neutrophils were incubated with vehicle (0.1% EtOH in PBS) or n-3 DPA products (1 nM, 15 min, 37° C., pH7.45) prior to loading on ChemoTx chambers and assessing chemotaxis towards IL-8 (100 ng/ml, 90 min, 37° C., pH7.45). […] After 60 min (37° C., pH7.45), the incubation was stopped, extracellular fluorescence quenched using trypan blue and phagocytosis assessed using a SpectraMax M3 Plate reader. […]
HUVEC were purchased from Lonza and cultured to passage 4. […] The plates were then washed with DPBS to remove non-adherent cells and the number of adherent neutrophils assessed using a Spectra Max M3 microplate reader.

[2] = tested on: human monocyte-derived macrophages; assay: Macrophage phagocytosis of fluorescently labeled zymosan; type: cell-based; conditions: 1 nM, 15 min, 37° C.; then labeled zymosan 60 min
Procedure: as §1
Macrophages were prepared and phagocytosis was assessed as in^16. […] Phagocytosis was assessed using an M3 SpectraMax plate reader.

human neutrophils = assay: Neutrophil chemotaxis towards IL-8 (ChemoTx); type: cell-based; conditions: 1 nM, 15 min, 37° C.; IL-8 100 ng/ml, 90 min
Procedure: as §1, with “reader.” for “reader. (b) Neutrophils were incubated with vehicle (0.1% EtOH in PBS) or n-3 DPA products (1 nM, 15 min, 37° C., pH7.45) prior to loading on ChemoTx chambers and assessing chemotaxis towards IL-8 (100 ng/ml, 90 min, 37° C., pH7.45).”
Peripheral blood neutrophils were obtained from healthy volunteers as in^17. […] 2.5×10^4 cells were then added to the upper chamber of the ChemoTx System (3 μm pore size filter) and chemotaxis towards IL8 (100 ng/ml) was assessed (90 min, 37° C., 5% CO2). The number of cells migrated into the bottom chamber was determined using Alama Blue following manufacturer's instructions on a Spectra Max M3 microplate reader (Molecular Devices Inc., Sunnyvale, Calif.).

[3] = tested on: infiltrated leukocytes into the lungs / lung tissue damage; assay: Murine hind limb ischemia reperfusion, second organ (lung) injury: histology and lung MPO; type: in vivo, mouse; conditions: i.v. 10 min prior to reperfusion; RvD1 500 ng (FIG. 1) or 0.5 ng (Methods); result in words
Procedure: (a) Structures of DHA and n-3 DPA. (b) Ischemia was induced by applying tourniquets to the hind limb of 6-8-week-old male FvB mice. After 1 h, tourniquets were removed and reperfusion ensued for 3 h. 10 min prior to reperfusion, vehicle (saline containing 0.1% EtOH), RvD1 (500 ng) or a mixture of n-3 DPA-derived products (see Methods for details) were administered intravenously. At the end of reperfusion, lungs were collected; (c) tissue histology by H&E staining (×200) and (d) MPO levels were assessed. (e) Blood was collected, incubated with rat anti-mouse Ly6G and rat anti-mouse CD41 antibodies and neutrophil leukocyte aggregates were assessed by flow cytometry. (f) Plasma prostanoid and (g) leukotriene levels were assessed by lipid mediator metabololipidomics. Results are mean±SEM. n=4 mice per group. (*P<0.05; vs. vehicle group). Results c are representative n=4. Results d-e are mean±SEM. n=4. *P<0.05, **P<0.01 vs. vehicle mice. […]
Mice were anesthetized by intraperitoneal injection of a mixture of […]. […] The frozen lungs were homogenized from individual mice, centrifuged and the tissue myeloperoxidase (MPO) levels were determined using a mouse MPO ELISA (R&D Systems.).

CC/C=C\CC(O)/C=C/C=CC=CC=CC(O)C(O)CCCCCC(=O)O (stereo not shown) [RvD1n-3 DPA, 7,8,17-trihydroxy-9,11,13,15E,19Z-docosapentaenoic acid]
neutrophil infiltration in murine peritonitis (neutrophil recruitment): reduced neutrophil infiltration

CC/C=C\C[C@H](O)[C@H](O)/C=C/C=C/C=C\C=C\[C@@H](O)C/C=C\CCC(=O)O [RvD2, 7S,16R,17S-trihydroxy-4Z,8E,10Z,12E,14E,19Z-docosahexaenoic acid]
reduction in neutrophil adhesion to TNF-α activated endothelial cells [1]: ~30% | increase in macrophage phagocytosis (uptake) of zymosan [2]: ~50% | reduction in neutrophil chemotaxis towards an IL-8 gradient (human neutrophils): ~42%

CC/C=C\CC(O)C=CC=CC=CC(O)C/C=C\CCCCCC(=O)O (stereo not shown) [PD1n-3 DPA, 10,17-dihydroxy-7Z,11,13,15,19Z-docosapentaenoic acid]
neutrophil infiltration in murine peritonitis (neutrophil recruitment): reduced neutrophil infiltration

CC/C=C\C/C=C\CC(O)C(O)C=CC=C/C=C\CCCCCC(=O)O (stereo not shown) [MaR2n-3 DPA, 13,14-dihydroxy-7Z,9,11,16Z,19Z-docosapentaenoic acid]
neutrophil infiltration in murine peritonitis (neutrophil recruitment): reduced neutrophil infiltration

CC/C=C\C[C@H](O)/C=C/C=C\C/C=C\C=C\[C@@H](O)CCCCCC(=O)O [RvD5n-3 DPA, 7,17-trihydroxy-8E,10,13,15E,19Z-docosapentaenoic acid]
neutrophil infiltration in murine peritonitis (neutrophil recruitment): reduced neutrophil infiltration

CC/C=C\CC(O)C(O)/C=C/C=CC=CC=CC(O)CCCCCC(=O)O (stereo not shown) [RvD2n-3 DPA, 7,16,17-trihydroxy-8,10,12,14E, 19Z-docosapentaenoic acid]
neutrophil infiltration in murine peritonitis (neutrophil recruitment): reduced neutrophil infiltration

CC/C=C\C[C@H](O)/C=C/C=C\C=C\C=C\[C@@H](O)[C@@H](O)C/C=C\CCC(=O)O [RvD1, 7S,8R,17S-trihydroxy-4Z,9E,11E,13Z,15E,19Z-docosahexaenoic acid]
protection from secondary organ injury (lung tissue damage, infiltrated leukocytes) [3]: protection

CC/C=C\C/C=C\CC(O)C=CC=CC=CC(O)CCCCCC(=O)O (stereo not shown) [MaR1n-3 DPA, 7,14-dihydroxy-8,10,12,16Z,19Z-docosapentaenoic acid]
neutrophil infiltration in murine peritonitis (neutrophil recruitment): reduced neutrophil infiltration
